The values that follow come from patent publication US7217711B2, “Piperazin-1-yl and 2-([1,4]diazepan-1-yl)-imidazo[4,5-d]-pyridazin-4-ones, the preparation thereof and their use as pharmaceutical compositions” (Boehringer Ingelheim International GmbH, priority 2003, dated 2007).

By IC50 is commonly meant the concentration at which inhibition is half-maximal.

The target in one series is T1, DPP-IV (Homo sapiens, UniProt P27487).
T1 construct: an extract of the human colon carcinoma cell line Caco-2 is used as the DPP IV source; endogenous in cells; host or cells: Caco-2 (human colon carcinoma), differentiated to induce DPP-IV expression; Nonidet-P40 solubilised extract
T1 sequence (P27487 whole entry): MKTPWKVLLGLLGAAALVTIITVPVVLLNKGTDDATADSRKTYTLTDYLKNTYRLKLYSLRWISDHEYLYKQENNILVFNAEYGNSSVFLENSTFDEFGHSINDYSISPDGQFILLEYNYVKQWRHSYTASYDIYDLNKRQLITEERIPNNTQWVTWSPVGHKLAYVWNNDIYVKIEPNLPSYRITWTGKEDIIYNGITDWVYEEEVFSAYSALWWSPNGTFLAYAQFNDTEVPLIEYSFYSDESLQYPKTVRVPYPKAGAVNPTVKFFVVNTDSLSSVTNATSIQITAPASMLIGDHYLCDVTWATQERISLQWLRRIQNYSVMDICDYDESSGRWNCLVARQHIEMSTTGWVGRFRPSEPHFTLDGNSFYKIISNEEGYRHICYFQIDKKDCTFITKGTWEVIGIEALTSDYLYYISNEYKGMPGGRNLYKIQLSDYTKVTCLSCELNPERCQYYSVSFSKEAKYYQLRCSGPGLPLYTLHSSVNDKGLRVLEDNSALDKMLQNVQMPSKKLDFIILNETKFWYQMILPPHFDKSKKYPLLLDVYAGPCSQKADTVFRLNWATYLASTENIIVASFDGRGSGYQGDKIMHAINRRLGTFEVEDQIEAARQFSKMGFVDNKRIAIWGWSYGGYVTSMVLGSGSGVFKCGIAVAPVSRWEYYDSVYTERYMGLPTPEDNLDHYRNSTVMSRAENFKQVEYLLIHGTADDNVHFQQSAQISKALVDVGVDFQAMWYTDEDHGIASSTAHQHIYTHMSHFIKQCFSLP
Description: DPP-IV assay with extract of Caco-2 cells as DPP IV source, AFC substrate, fluorescence. The following applies: extract of human colon carcinoma cell line Caco-2; substrate 100 μM; 60 minutes at ambient temperature; read-out: DPP IV inhibition IC50. Format: biochemical. The procedure:
The cell extract was obtained from cells solubilised in a buffer (10 mM Tris HCl, 0.15 M NaCl, 0.04 t.i.u. aprotinin, 0.5% Nonidet-P40, pH 8.0) by centrifugation at 35,000 g for 30 minutes at 4° C. (to remove cell debris).
The DPP-IV assay was carried out as follows:
50 μl of substrate solution (AFC; AFC is amido-4-trifluoromethylcoumarin), final concentration 100 μM, were placed in black microtitre plates. 20 μl of assay buffer (final concentrations 50 mM Tris HCl pH 7.8, 50 mM NaCl, 1% DMSO) was pipetted in. The reaction was started by the addition of 30 μl of solubilised Caco-2 protein (final concentration 0.14 μg of protein per well). The test substances under investigation were typically added prediluted to 20 μl, while the volume of assay buffer was then reduced accordingly. The reaction was carried out at ambient temperature, the incubation period was 60 minutes. […] Dummy values (corresponding to 0% activity) were obtained in mixtures with no Caco-2 protein (volume replaced by assay buffer), control values (corresponding to 100% activity) were obtained in mixtures without any added substance.

The subject of a further series is rats. Description: Tolerability in rats after oral administration. It is filed as in vivo. The following applies: oral administration of 10 mg/kg.

Regarding `CC#CCn1c(N2CCCNCC2)nc2cnn(Cc3cc(C)c4nc(C)c(C)nc4c3)c(=O)c21` [1(2), 2-([1,4]diazepan-1-yl)-3-(2-butyn-1-yl)-5-[(2,3,8-trimethyl-quinoxalin-6-yl)methyl]-3,5-dihydro-imidazo[4,5-d]pyridazin-4-one], at DPP-IV, the IC50 turned out to be 17 nM.
Same read-out and setting: the result for `CC#CCn1c(N2CCNCC2)nc2cnn(Cc3nc4c(C)cccc4o3)c(=O)c21` [1(9), 2-(piperazin-1-yl)-3-(2-butyn-1-yl)-5-[(4-methyl-benzoxazol-2-yl)methyl]-3,5-dihydro-imidazo[4,5-d]pyridazin-4-one] reads 3 nM; that for `CC#CCn1c(N2CCNCC2)nc2cnn(Cc3ccc4c(c3)nnn4C)c(=O)c21` [1(11), 2-(piperazin-1-yl)-3-(2-butyn-1-yl)-5-[(1-methyl-1H-benzotriazol-5-yl)methyl]-3,5-dihydro-imidazo[4,5-d]pyridazin-4-one], 2 nM; that for `CC#CCn1c(N2CCCNCC2)nc2cnn(Cc3ccc4c(c3)nnn4C)c(=O)c21` [1(12), 2-([1,4]diazepan-1-yl)-3-(2-butyn-1-yl)-5-[(1-methyl-1H-benzotriazol-5-yl)methyl]-3,5-dihydro-imidazo[4,5-d]pyridazin-4-one], 4 nM.
In the case of `CC#CCn1c(N2CCCNCC2)nc2cnn(Cc3nc4c(C)cccc4o3)c(=O)c21` [1(13), 2-([1,4]diazepan-1-yl)-3-(2-butyn-1-yl)-5-[(4-methyl-benzoxazol-2-yl)methyl]-3,5-dihydro-imidazo[4,5-d]pyridazin-4-one], the IC50 at DPP-IV stood at 5 nM.
For `CC#CCn1c(N2CCNCC2)nc2cnn(Cc3nc(C)c4ccccc4n3)c(=O)c21` [Example 1, 2-(piperazin-1-yl)-3-(2-butyn-1-yl)-5-[(4-methyl-quinazolin-2-yl)methyl]-3,5-dihydro-imidazo[4,5-d]pyridazin-4-one], the toxic side effects result in the series on rats was “no toxic side effects could be detected”.
`CC#CCn1c(N2CCNCC2)nc2cnn(Cc3cc(C)c4nc(C)c(C)nc4c3)c(=O)c21` [Example 2, 2-(piperazin-1-yl)-3-(2-butyn-1-yl)-5-[(2,3,8-trimethyl-quinoxalin-6-yl)methyl]-3,5-dihydro-imidazo[4,5-d]pyridazin-4-one]: on DPP-IV, the IC50 came out at 14 nM.
